In patent US6815440B2, “Cyclic and heterocyclic N-substituted α-iminohydroxamic and -carboxylic acids” (Aventis Pharma Deutschland GmbH, priority 1995, dated 2004):
pIC50: −log10 of the molar value. Structures can show the parent of a compound that is named as a salt.

How the values were obtained:
Format in all cases: biochemical
[1] = target: T1, catalytic domain of human stromelysine (Homo sapiens, UniProt P08254); experiment: Enzyme inhibition, catalytic domain of human stromelysine (fluorogenic substrate); settings: hydroxamic acids up to and including Example 33; tris/HCl buffer pH=7.5; read-out: Stromelysine IC 50
T1 construct: enzymatic activity of the catalytic domains of human stomelysine and of neutrophil collagenase; made in house
Procedure: (§1) Preparation and determination of the enzymatic activity of the catalytic domains of human stomelysine and of neutrophil collagenase.
(§2) The two enzymes were prepared according to Ye et al., (Biochemistry 31 (1992) 11231-5). To measure the enzyme activity or enzyme inhibitor action, 70 μl of buffer solution and 10 μl of enzyme solution are incubated for 15 minutes with 10 μl of a 10% strength (v/v) aqueous dimethyl sulfoxide solution, which optionally contains the enzyme inhibitor. After addition of 10 μl of a 10% strength (v/v) aqueous dimethyl sulfoxide solution which contains 1 mmol/l of the substrate, the enzyme reaction is monitored by fluorescence spectroscopy (328 nm (ex)/393 nm(em)). The enzyme activity is shown as extinction increase/minute. […] The buffer solution contains 0.05% of Brij (Sigma, Deisenhofen, Germany) and also 0.1 mol/l of tris/HCl, 0.1 mol/l of NaCl, 0.01 mol/l of CaCl2 (pH=7.5) for the determination of the hydroxamic acids up to and including Example 33, or, for the determination of the carboxylic acids from Example 34, 0.1 mol/l of piperazine-N,N′-bis[2-ethanesulfonic acid] pH=6.5.
(§3) The enzyme solution contains 5 μg/ml of one of the enzyme domains prepared according to Ye et al. The substrate solution contains 1 mmol/l of the fluorogenic substrate (7-methoxycoumarin-4-yl)acetyl-Pro-Leu-Gly-Leu-3-(2′,4′-dinitrophenyl)-L-2,3-diaminopropionyl-Ala-Arg-NH2 (Bachem, Heidelberg, Germany).

[2] = target: T2, catalytic domain of neutrophil collagenase (Homo sapiens, UniProt P22894); experiment: Enzyme inhibition, catalytic domain of neutrophil collagenase (fluorogenic substrate); settings: hydroxamic acids up to and including Example 33; tris/HCl buffer pH=7.5; read-out: Neutrophil collagenase IC 50
T2 construct: enzymatic activity of the catalytic domains of human stomelysine and of neutrophil collagenase; made in house
Procedure: as §1, §2, §3

[3] = target: T3, catalytic domain of stromelysine-1 (Homo sapiens, UniProt P08254); experiment: Proteoglycan degradation assay (bovine aggrecan, ELISA with antibody 5-D-4); settings: bovine nasal proteoglycane, 60 ng stromelysine-1 catalytic domain, MES pH 6.0, RT 3 h
T3 construct: enzymatic activity of the catalytic domains of human stomelysine and of neutrophil collagenase; made in house
Procedure: In the proteoglycan degradation assay, the extent of the degradation of native bovine aggrecan, the most important proteoglycan of the cartilage, is measured. The released proteoglycan fragments are determined using the monoclonal antibody 5-D-4 which recognizes the keratan sulfate side-chains which are located at the carboxy terminal of the G2 domain of aggrecan. Thus, the assay detects primarily pathologically important degradations which take place in the interglobular domain of aggrecan.
After addition of compounds of the formula I and the enzyme in the form of the catalytic domain of stromelysine-1, the amount of hyaluronic acid-bound aggrecan which remains after degradation is measured. The more aggrecan is detected, the lower the residual activity of the enzyme.
Description of the Test Protocol:
Wells of 96 well microtiter plates (Nunc, Maxisorp) each containing 100 μl of hyaluronic acid solution (25 μg/ml of hyaluronic acid (Sigma) in PBS) are incubated at room temperature (RT) for 12 h. The hyaluronic acid solution is removed by suction and the remaining free protein binding sites of the wells are saturated with in each case […] of a 5% strength solution of bovine serum albumin (BSA), 0.05% of Tween20 in PBS at RT for 1 h. The wells are subsequently covered with proteoglycane by incubating the wells with 100 μl each of a solution of bovine nasal proteoglycane (ICI) (200 μg/ml in 1×PBS, 5 mg/ml of BSA, 0.05% of Tween20) at RT for 1 h. The wells are washed twice with 1×PBS, 0.1% Tween20 to remove the free proteoglycanes. Subsequently, for the actual assay, 60 ng of purified catalytic domain of Stromelysine-1 (for the recombinant expression and purification, see Ye et al. (1992)) plus corresponding concentrations of the inhibitor to be tested in 100 μl of degradation buffer (100 mM MES pH 6.0, 100 mM NaCl, 10 mM CaCl2, 0.05% of Brij) are pipetted into the wells and incubated at RT for 3 h. The wells are washed twice with 1×PBS, 0.1% of Tween20 and then incubated with 100 μl of a solution of the detection antibody (monoclonal antibody done 5-D-4 (ICI), immunoreactive with the keratan sulfate side-chains of the proteoglycane, dilution 1:1000 in 1×PBS, 5 mg/ml BSA, 0.05% Tween20). The wells are washed twice with 1×PBS, 0.1% of Tween20, after which the immune reaction of the bound detection antibodies is carried out using 100 μl per well of an antibody solution for detection (goat anti Maus IgG, labeled with peroxidase (Dianova), diluted 1:1000 in 1×PBS, 5 mg/ml of BSA, 0.05% of Tween20) at RT for 1 h. The wells are again washed twice (as above), and the color reaction is then initiated using 100 μl each of 2 mg/ml of ABTS, activated with H2O2. The reaction products are measured in an ELISA reader at a wavelength of […].

T1 sequence (P08254 100-272 limits assumed): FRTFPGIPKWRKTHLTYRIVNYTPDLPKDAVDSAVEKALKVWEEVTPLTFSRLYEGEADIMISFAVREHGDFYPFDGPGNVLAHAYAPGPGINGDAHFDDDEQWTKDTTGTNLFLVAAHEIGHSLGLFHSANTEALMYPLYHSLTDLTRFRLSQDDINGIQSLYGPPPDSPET
T3 sequence (P08254 100-272 limits assumed): as above
T2 sequence (P22894 100-262 limits assumed): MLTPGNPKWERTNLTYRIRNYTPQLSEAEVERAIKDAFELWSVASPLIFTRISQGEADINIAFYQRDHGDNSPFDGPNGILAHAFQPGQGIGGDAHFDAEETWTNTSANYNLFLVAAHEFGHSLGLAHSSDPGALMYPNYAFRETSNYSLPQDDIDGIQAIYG

In the case of `COc1ccc(S(=O)(=O)N2Cc3nc[nH]c3C[C@@H]2C(=O)NO)cc1` [Example 29, R-5-(4-methoxybenzenesulfonyl)-4,5,6,7-tetrahydro-1H-imidazo-(4,5-c)-pyridine-6-hydroxamic acid hydrochloride], the pIC50 [1] was 7.70, the pIC50 [2] was 8.40 and the pIC50 [3] was 7.60.
Work on `CN(C)c1ccc(Oc2ccc(S(=O)(=O)N3Cc4ccccc4C[C@@H]3C(=O)NO)cc2)cc1` [Example 14] yielded a pIC50 [1] of 7.52, a pIC50 [2] of 8.70 and a pIC50 [3] of 8.17.
With `O=C(Nc1ccc(S(=O)(=O)N2Cc3ccccc3C[C@@H]2C(=O)NO)cc1)OCc1ccccc1` [Example 9] the pIC50 [1] was 6.40, the pIC50 [2] was 6.10 and the pIC50 [3] was 5.80.
`O=C(NO)C1Cc2ccccc2CN1S(=O)(=O)c1ccc(-c2ccccc2)cc1` (stereo not drawn) [Example 2] showed a pIC50 [1] of 7.70, a pIC50 [2] of 9.70 and a pIC50 [3] of 7.07.
Work on `O=C(c1ccccc1)c1ccc(S(=O)(=O)N2Cc3ccccc3C[C@@H]2C(=O)NO)cc1` [Example 18] yielded a pIC50 [1] of 7.52, a pIC50 [2] of 8.52 and a pIC50 [3] of 7.39.
`O=C(NO)[C@H]1Cc2ccccc2CN1S(=O)(=O)c1ccc(Oc2ccccc2)cc1` [Example 13c, R-2-(4-phenoxybenzenesulfonyl)-1,2,3,4-tetrahydroisoquinoline-3-hydroxamic acid] gave a pIC50 [1] of 7.70, a pIC50 [2] of 8.70 and a pIC50 [3] of 7.29.
`CCOC(=O)Oc1ccc2c(c1)CN(S(=O)(=O)c1ccc(OC)cc1)[C@@H](C(=O)NO)C2` [Example 21] showed a pIC50 [1] of 7.70, a pIC50 [2] of 8.70 and a pIC50 [3] of 7.19.
